{"source": "patent US8829007B2", "about": "(priority 2009, dated 2014)", "key": {"[1]": {"tested_on": "influenza A virus (A/PR/8/34)", "test": "microbe, parasite or virus in culture", "assay_type": "cell-based"}, "[2]": {"tested_on": "influenza", "test": "In vivo prophylaxis study (FIG. 1), survival of infected mice", "parameters": "species or system Balb/c mice", "conditions": "100 mg/kg oral gavage, first dose 2 hours prior to infection, twice daily for 5 days, survival monitored 21 days, P<0.0001 vs vehicle"}, "[3]": {"tested_on": "A/PR/8/34 influenza virus", "test": "microbe, parasite or virus in culture", "assay_type": "cell-based"}, "[4]": {"tested_on": "influenza", "test": "Influenza Therapeutic Mouse Model (Table 6)", "assay_type": "in vivo, mice", "conditions": "dosing @ 48 hours post infection with 30 mg/kg BID X 10 days"}, "[5]": {"tested_on": "influenza", "test": "In vivo treatment study (FIG. 2), survival of infected mice", "parameters": "species or system Balb/c mice", "conditions": "200 mg/kg oral gavage from 24 hours post infection, twice daily for 10 days, survival monitored 21 days, P<0.0001 vs vehicle"}, "[6]": {"conditions": "Influenza A virus, PR/8, MDCK, MDCK cells infected with A/PR/8/34, survival of infected cells, class symbols, read-out: IC50 (mean all)"}, "[7]": {"conditions": "Influenza A virus, PR/8, MDCK, MDCK cells infected with A/PR/8/34, replication of influenza virus (viral RNA, bDNA), class symbols, read-out: EC50 (mean all)"}, "[8]": {"conditions": "Influenza A virus, PR/8, MDCK, mean all, survival of A/PR/8/34 infected MDCK cells (CPE assay), read-out: IC50"}, "[9]": {"conditions": "Influenza A virus, PR/8, mean all, replication of A/PR/8/34 influenza virus (bDNA assay), read-out: EC50"}, "[10]": {"conditions": "mean all, A/PR/8/34 influenza virus in MDCK cells, bDNA assay, read-out: EC50"}}, "note": "pEC50, pIC50: −log10 of the molar value. Read-outs that look alike come from different tables or passages of the source."}
{"compound": "COC(=O)N[C@H]1CCC[C@@H](Nc2nc(-c3c[nH]c4ncc(Cl)cc34)ncc2F)C1", "note": "(relative stereo) [Compound 514, Methyl-cis-3-[[2-(5-chloro-1H-pyrrolo[2,3-b]pyridin-3-yl)-5-fluoro-pyrimidin-4-yl]amino]cyclohexylcarbamate]", "values": [{"measurement": "pIC50", "setting": "[1]; [6]", "result": "> 5.30"}, {"measurement": "survival", "setting": "[2]", "result": "complete survival"}, {"measurement": "pEC50", "setting": "[3]; [7]", "result": "> 5.30"}]}
{"compound": "C[C@H]1NC(=O)O[C@]12CCC[C@H](Nc1nc(-c3c[nH]c4ncc(F)cc34)ncc1F)C2", "note": "(single isomer, unassigned) [Compound 967]", "values": [{"measurement": "pIC50", "setting": "[1]; [8]", "result": "> 5.30"}, {"measurement": "pEC50", "setting": "[3]; [9]", "result": "> 5.30"}, {"measurement": "Percent Survival", "setting": "[4]", "result": 75, "unit": "%"}, {"measurement": "Percent Weight Loss (Day 8)", "setting": "[4]", "result": 30.9, "unit": "%"}]}
{"compound": "OC[C@H](O)CN1CCCC(Nc2nc(-c3c[nH]c4ncc(Cl)cc34)ncc2F)C1", "note": "(stereo partly shown) [Compound 588]", "values": [{"measurement": "pIC50", "setting": "[1]; [6]", "result": "> 5.30"}, {"measurement": "pEC50", "setting": "[3]; [7]", "result": "> 5.30"}, {"measurement": "survival", "setting": "[5]", "result": "complete survival"}]}
{"compound": "O=C(N[C@@H]1CCC[C@H](Nc2nc(-c3c[nH]c4ncc(F)cc34)ncc2F)C1)N1CCOCC1", "note": "[Compound 706, N-[(1R,3S)-3-[[5-fluoro-2-(5-fluoro-1H-pyrrolo[2,3-b]pyridin-3-yl)pyrimidin-4-yl]amino]cyclohexyl]morpholine-4-carboxamide]", "values": [{"measurement": "pIC50", "setting": "[1]; Influenza A virus, PR/8, MDCK, mean all, MDCK cells infected with A/PR/8/34, cell protection (CPE), read-out: IC50", "result": "> 5.30"}, {"measurement": "pEC50", "setting": "[3]; Influenza A virus, PR/8, MDCK, mean all, bDNA viral RNA in MDCK cells infected with A/PR/8/34, read-out: EC50", "result": "> 5.30"}, {"measurement": "Percent Survival", "setting": "[4]", "result": 75, "unit": "%"}, {"measurement": "Percent Weight Loss (Day 8)", "setting": "[4]", "result": 27.0, "unit": "%"}]}
{"compound": "O=C(N[C@@H]1CCC[C@H](Nc2nc(-c3c[nH]c4ncc(F)cc34)ncc2F)C1)N1CCCC1", "note": "[Compound 895, N-((1R,3S)-3-(5-fluoro-2-(5-fluoro-1H-pyrrolo[2,3-b]pyridin-3-yl)-pyrimidin-4-ylamino)cyclohexyl)pyrrolidine-1-carboxamide]", "values": [{"measurement": "pIC50", "setting": "[1]; Influenza A virus, PR/8, MDCK, exemplary values in text, survival of A/PR/8/34 infected cells, read-out: IC50", "result": 9.10}, {"measurement": "pIC50", "setting": "[1]; [8]", "result": "> 5.30"}, {"measurement": "pEC50", "setting": "[3]; Influenza A virus, PR/8, exemplary values in text, replication of A/PR/8/34 influenza virus, read-out: EC50", "result": 9.00}, {"measurement": "pEC50", "setting": "[3]; [9]", "result": "> 5.30"}, {"measurement": "Percent Survival", "setting": "[4]", "result": 100, "unit": "%"}, {"measurement": "Percent Weight Loss (Day 8)", "setting": "[4]", "result": 12.8, "unit": "%"}]}
{"compound": "(R)—N-((1-(3-bromophenylsulfonyl)piperidin-3-yl)methyl)-2-(5-chloro-1H-pyrrolo[2,3-b]pyridin-3-yl)-5-fluoropyrimidin-4-amine [Compound 88]", "values": [{"measurement": "pIC50", "setting": "[1]; read-out: IC50 (mean all)", "result": "> 5.30"}, {"measurement": "pEC50", "setting": "[3]; read-out: EC50 (mean all)", "result": "> 5.30"}]}
{"compound": "(R)—N-cyclopropyl-2-((5-fluoro-2-(1H-pyrrolo[2,3-b]pyridin-3-yl)pyrimidin-4-ylamino)-methyl)piperidine-1-carboxamide [Compound 372]", "values": [{"measurement": "pIC50", "setting": "[1]; read-out: IC50", "result": "4.70 to 5.30"}, {"measurement": "pEC50", "setting": "[3]; [10]", "result": "5.00 to 5.30"}]}
{"compound": "(R)—N-tert-butyl-3-((2-(5-chloro-1H-pyrrolo[2,3-b]pyridin-3-yl)-5-fluoropyrimidin-4-ylamino)methyl)piperidine-1-carboxamide [Compound 117]", "values": [{"measurement": "pIC50", "setting": "[1]; read-out: IC50 (mean all)", "result": "> 5.30"}, {"measurement": "pEC50", "setting": "[3]; read-out: EC50 (mean all)", "result": "> 5.30"}]}
{"compound": "N-[cis-2-[[5-fluoro-2-(1H-pyrrolo[2,3-b]pyridin-3-yl)pyrimidin-4-yl]amino]cyclohexyl]methanesulfonamide [Compound 337]", "values": [{"measurement": "pIC50", "setting": "[1]; read-out: IC50", "result": "4.70 to 5.30"}, {"measurement": "pEC50", "setting": "[3]; [10]", "result": "> 5.30"}]}
